Columns and labels:
[1] = system: HT-29; experiment: Antitumor activity against human HT-29 cells xenografted in mouse assessed as tumor volume at 0.5 mg/kg, iv dosed three times per week to the end of treatment measured on day 10 (reference value: 386 +/- 77 mm3); type: functional
[2] = system: Mus musculus; experiment: Toxicity in human HT-29 cells xenografted mouse assessed as induction of anaphylactic reaction at 0.5 mg/kg, iv dosed three times per week to the end of treatment; type: organism-based; design: dose 0.5 mg/kg, route intravenous; conditions: in vivo
[3] = system: HT-29; experiment: Antitumor activity against human HT-29 cells xenografted in mouse assessed as tumor volume at 3 mg/kg, iv dosed three times per week to the end of treatment measured on day 14 (reference value: 677 +/- 115 mm3); type: functional
[4] = system: Mus musculus; experiment: Toxicity in human HT-29 cells xenografted mouse assessed as lethal toxicity at 0.5 mg/kg, iv dosed three times per week to the end of treatment; type: organism-based; design: dose 0.5 mg/kg, route intravenous; conditions: in vivo
[5] = system: Mus musculus; experiment: Toxicity in human HT-29 cells xenografted mouse assessed as body weight level at 0.5 mg/kg, iv dosed three times per week to the end of treatment measured on day 10 (reference value: 22.4 +/- 1.3 g); type: organism-based; design: dose 0.5 mg/kg, route intravenous; conditions: in vivo
[6] = system: Mus musculus; experiment: Toxicity in human HT-29 cells xenografted mouse assessed as body weight level at 3 mg/kg, iv dosed three times per week to the end of treatment measured on day 21 (reference value: 21.2 +/- 1.6 g); type: organism-based; design: dose 3 mg/kg, route intravenous; conditions: in vivo
[7] = Cytotoxicity against human HCT116 cells after 72 hrs by sulforhodamine B assay; type: functional, cell-based, HCT-116; conditions: hct-116
[8] = system: Mus musculus; experiment: Toxicity in human HT-29 cells xenografted mouse assessed as body weight level at 3 mg/kg, iv dosed three times per week to the end of treatment measured on day 10 (reference value: 22.4 +/- 1.3 g); type: organism-based; design: dose 3 mg/kg, route intravenous; conditions: in vivo
[9] = system: Mus musculus; experiment: Toxicity in human HT-29 cells xenografted mouse assessed as body weight level at 0.5 mg/kg, iv dosed three times per week to the end of treatment measured on day 3 (reference value: 20.7 +/- 1.2 g); type: organism-based; design: dose 0.5 mg/kg, route intravenous; conditions: in vivo
[10] = system: Mus musculus; experiment: Toxicity in human HT-29 cells xenografted mouse assessed as body weight level at 3 mg/kg, iv dosed three times per week to the end of treatment measured on day 17 (reference value: 22 +/- 1.7 g); type: organism-based; design: dose 3 mg/kg, route intravenous; conditions: in vivo
[11] = system: HT-29; experiment: Antitumor activity against human HT-29 cells xenografted in mouse assessed as tumor volume at 3 mg/kg, iv dosed three times per week to the end of treatment measured on day 7 (reference value: 229 +/- 57 mm3); type: functional
[12] = system: HT-29; experiment: Antitumor activity against human HT-29 cells xenografted in mouse assessed as tumor volume at 3 mg/kg, iv dosed three times per week to the end of treatment measured on day 10 (reference value: 386 +/- 77 mm3); type: functional
[13] = system: Mus musculus; experiment: Toxicity in human HT-29 cells xenografted mouse assessed as body weight level at 3 mg/kg, iv dosed three times per week to the end of treatment measured on day 7 (reference value: 21.7 +/- 1 g); type: organism-based; design: dose 3 mg/kg, route intravenous; conditions: in vivo
[14] = system: HT-29; experiment: Antitumor activity against human HT-29 cells xenografted in mouse assessed as tumor volume at 0.5 mg/kg, iv dosed three times per week to the end of treatment measured on day 7 (reference value: 229 +/- 57 mm3); type: functional
[15] = Stability in human plasma assessed as lactone moieties level at 1 uM incubated at 37 degC after 3 hrs by HPLC method; type: ADME, cell-free; conditions: read-out: Stability
[16] = system: Mus musculus; experiment: Toxicity in human HT-29 cells xenografted mouse assessed as body weight level at 0.5 mg/kg, iv dosed three times per week to the end of treatment measured on day 21 (reference value: 21.2 +/- 1.6 g); type: organism-based; design: dose 0.5 mg/kg, route intravenous; conditions: in vivo
[17] = system: HT-29; experiment: Antitumor activity against human HT-29 cells xenografted in mouse assessed as tumor volume at 0.5 mg/kg, iv dosed three times per week to the end of treatment measured on day 14 (reference value: 677 +/- 115 mm3); type: functional
[18] = system: HT-29; experiment: Antitumor activity against human HT-29 cells xenografted in mouse assessed as tumor volume at 0.5 mg/kg, iv dosed three times per week to the end of treatment measured on day 17 (reference value: 807 +/- 197 mm3); type: functional
[19] = system: Mus musculus; experiment: Toxicity in human HT-29 cells xenografted mouse assessed as induction of anaphylactic reaction at 3 mg/kg, iv dosed three times per week to the end of treatment; type: organism-based; design: dose 3 mg/kg, route intravenous; conditions: in vivo
[20] = system: Mus musculus; experiment: Toxicity in human HT-29 cells xenografted mouse assessed as lethal toxicity at 3 mg/kg, iv dosed three times per week to the end of treatment; type: organism-based; design: dose 3 mg/kg, route intravenous; conditions: in vivo
[21] = system: Mus musculus; experiment: Toxicity in human HT-29 cells xenografted mouse assessed as body weight level at 3 mg/kg, iv dosed three times per week to the end of treatment measured on day 3 (reference value: 20.7 +/- 1.2 g); type: organism-based; design: dose 3 mg/kg, route intravenous; conditions: in vivo
[22] = system: HT-29; experiment: Antitumor activity against human HT-29 cells xenografted in mouse assessed as tumor volume at 0.5 mg/kg, iv dosed three times per week to the end of treatment measured on day 21 (reference value: 1272+/- 273 mm3); type: functional
[23] = system: HT-29; experiment: Antitumor activity against human HT-29 cells xenografted in mouse assessed as relative tumor increment rate at 0.5 mg/kg, iv dosed three times per week to the end of treatment relative to untreated control; type: functional
[24] = system: Mus musculus; experiment: Toxicity in human HT-29 cells xenografted mouse assessed as induction of overt toxic symptoms at 0.5 mg/kg, iv dosed three times per week to the end of treatment; type: organism-based; design: dose 0.5 mg/kg, route intravenous; conditions: in vivo
[25] = system: HT-29; experiment: Antitumor activity against human HT-29 cells xenografted in mouse assessed as tumor volume at 3 mg/kg, iv dosed three times per week to the end of treatment measured on day 17 (reference value: 807 +/- 197 mm3); type: functional
[26] = system: Mus musculus; experiment: Toxicity in human HT-29 cells xenografted mouse assessed as body weight level at 3 mg/kg, iv dosed three times per week to the end of treatment measured on day 14 (reference value: 22.7 +/- 1.5 g); type: organism-based; design: dose 3 mg/kg, route intravenous; conditions: in vivo
[27] = system: Mus musculus; experiment: Toxicity in human HT-29 cells xenografted mouse assessed as body weight change at 3 mg/kg, iv dosed three times per week to the end of treatment (reference value: 12.7%); type: organism-based; design: dose 3 mg/kg, route intravenous; conditions: in vivo
[28] = system: Mus musculus; experiment: Toxicity in human HT-29 cells xenografted mouse assessed as body weight level at 0.5 mg/kg, iv dosed three times per week to the end of treatment measured on day 17 (reference value: 22 +/- 1.7 g); type: organism-based; design: dose 0.5 mg/kg, route intravenous; conditions: in vivo
[29] = Stability in pH 7.4 PBS buffer assessed as formation of carboxylate forms at 1 uM incubated at 37 degC by HPLC method; type: physicochemical; conditions: pH 7.4, 1 µM
[30] = system: HCT-116; experiment: Potency index, ratio of IC50 for SN38 to IC50 for compound against human HCT116 cells after 72 hrs by sulforhodamine B assay; type: functional
[31] = system: HT-29; experiment: Antitumor activity against human HT-29 cells xenografted in mouse assessed as tumor volume at 0.5 mg/kg, iv dosed three times per week to the end of treatment measured on day 3 (reference value: 168 +/- 46 mm3); type: functional
[32] = system: Mus musculus; experiment: Toxicity in human HT-29 cells xenografted mouse assessed as body weight level at 0.5 mg/kg, iv dosed three times per week to the end of treatment measured on day 7 (reference value: 21.7 +/- 1 g); type: organism-based; design: dose 0.5 mg/kg, route intravenous; conditions: in vivo
[33] = system: HT-29; experiment: Antitumor activity against human HT-29 cells xenografted in mouse assessed as tumor volume at 3 mg/kg, iv dosed three times per week to the end of treatment measured on day 3 (reference value: 168 +/- 46 mm3); type: functional
[34] = system: Mus musculus; experiment: Toxicity in human HT-29 cells xenografted mouse assessed as induction of overt toxic symptoms at 3 mg/kg, iv dosed three times per week to the end of treatment; type: organism-based; design: dose 3 mg/kg, route intravenous; conditions: in vivo
[35] = system: HT-29; experiment: Antitumor activity against human HT-29 cells xenografted in mouse assessed as tumor volume at 3 mg/kg, iv dosed three times per week to the end of treatment measured on day 21 (reference value: 1272+/- 273 mm3); type: functional
[36] = system: HT-29; experiment: Cytotoxicity against human HT-29 cells after 72 hrs by sulforhodamine B assay; type: functional, cell-based; conditions: ht-29
[37] = system: HT-29; experiment: Antitumor activity against human HT-29 cells xenografted in mouse assessed as relative tumor increment rate at 3 mg/kg, iv dosed three times per week to the end of treatment relative to untreated control; type: functional
[38] = Solubility in water; type: physicochemical
[39] = system: Mus musculus; experiment: Toxicity in human HT-29 cells xenografted mouse assessed as body weight level at 0.5 mg/kg, iv dosed three times per week to the end of treatment measured on day 14 (reference value: 22.7 +/- 1.5 g); type: organism-based; design: dose 0.5 mg/kg, route intravenous; conditions: in vivo

CC[C@]1(O)c2cc3n(c(=O)c2COC(=O)[C@H]1OC)Cc1c-3nc2cc3c(cc2c1-c1ccncc1)OCO3.Cl
Activity [1]: 262 mm3 | Activity [2]: Non-toxic | Activity [3]: 51 mm3 | Activity [4]: Non-toxic | Activity [5]: 22 g | Activity [6]: 18.7 g | IC50 [7]: 0.628 nM | Activity [8]: 16.8 g | Activity [9]: 20.5 g | Activity [10]: 18.4 g | Activity [11]: 93 mm3 | Activity [12]: 52 mm3 | Activity [13]: 18.6 g | Activity [14]: 187 mm3 | remaining at 3 h, 1 µM [15]: 55% | Activity [16]: 21.3 g | Activity [17]: 327 mm3 | Activity [18]: 380 mm3 | Activity [19]: Non-toxic | Activity [20]: Non-toxic | Activity [21]: 19.8 g | Activity [22]: 550 mm3 | T/C [23]: 42.84% | Activity [24]: Non-toxic | Activity [25]: 15 mm3 | Activity [26]: 18.1 g | Activity [27]: -2.6% | Activity [28]: 22.2 g | Stability [29]: Stable | Ratio IC50 [30]: 20 | Activity [31]: 156 mm3 | Activity [32]: 21.4 g | Activity [33]: 124 mm3 | Activity [34]: Non-toxic | Activity [35]: 0 mm3 | IC50 [36]: 3.41 nM | T/C [37]: 0% | solubility [38]: 1200 µg/mL | Activity [39]: 22.5 g

Source: ChEMBL document CHEMBL3400135, “Design, synthesis and biological evaluation of novel homocamptothecin analogues as potent antitumor agents” (Bioorg Med Chem, 2015)
